Source: ChEMBL document CHEMBL4002635, “A novel monoterpenoid indole alkaloid with anticancer activity from Melodinus khasianus” (Bioorg Med Chem Lett, 2017)
pIC50: −log10 of the molar value.

How the values were obtained:
PC-3 [1] = assay: Induction of apoptosis in human PC3 cells assessed as increase in p53 protein expression after 48 hrs by Western blot method; format: functional, cell-based
PC-3 [2] = assay: Induction of apoptosis in human PC3 cells assessed as early apoptotic cells at 1 uM after 24 hrs by Annexin-V FITC/7-AAD staining based flow cytometry (reference value: 0.1%); format: functional
PC-3 [3] = assay: Induction of apoptosis in human PC3 cells assessed as necrotic cells at 0.1 uM after 24 hrs by Annexin-V FITC/7-AAD staining based flow cytometry (reference value: 0.02%); format: functional
PC-3 [4] = assay: Induction of apoptosis in human PC3 cells assessed as late apoptotic cells at 1 uM after 24 hrs by Annexin-V FITC/7-AAD staining based flow cytometry (reference value: 0.31%); format: functional
PC-3 [5] = assay: Antiproliferative activity against human PC3 cells after 48 hrs by MTT assay; format: functional, cell-based; settings: PC-3, 48 h
PC-3 [6] = assay: Induction of apoptosis in human PC3 cells assessed as live cells at 1 uM after 24 hrs by Annexin-V FITC/7-AAD staining based flow cytometry (reference value: 98.8%); format: functional
MDA-MB-231 = assay: Antiproliferative activity against human MDA-MB-231 cells after 48 hrs by MTT assay; format: functional, cell-based; settings: MDA-MB-231, 48 h
K562 = assay: Antiproliferative activity against human K562 cells after 48 hrs by MTT assay; format: functional, cell-based; settings: K562, 48 h
PC-3 [7] = assay: Induction of apoptosis in human PC3 cells assessed as caspase 3A negative cells at 10 uM after 24 hrs by flow cytometry (reference value: 97.5%); format: functional
PC-3 [8] = assay: Induction of apoptosis in human PC3 cells assessed as caspase 3A positive cells at 1 uM after 24 hrs by flow cytometry (reference value: 2.45%); format: functional
PC-3 [9] = assay: Induction of apoptosis in human PC3 cells assessed as early apoptotic cells at 10 uM after 24 hrs by Annexin-V FITC/7-AAD staining based flow cytometry (reference value: 0.1%); format: functional
PC-3 [10] = assay: Induction of apoptosis in human PC3 cells assessed as increase in active caspase 3A after 24 hrs by flow cytometry; format: functional, cell-based
PC-3 [11] = assay: Induction of apoptosis in human PC3 cells assessed as necrotic cells at 1 uM after 24 hrs by Annexin-V FITC/7-AAD staining based flow cytometry (reference value: 0.02%); format: functional
A549 = assay: Antiproliferative activity against human A549 cells after 48 hrs by MTT assay; format: functional, cell-based; settings: A549, 48 h
PC-3 [12] = assay: Induction of apoptosis in human PC3 cells assessed as caspase 3A negative cells at 1 uM after 24 hrs by flow cytometry (reference value: 97.5%); format: functional
PC-3 [13] = assay: Induction of apoptosis in human PC3 cells assessed as live cells at 10 uM after 24 hrs by Annexin-V FITC/7-AAD staining based flow cytometry (reference value: 98.8%); format: functional
PC-3 [14] = assay: Induction of apoptosis in human PC3 cells assessed as live cells at 0.1 uM after 24 hrs by Annexin-V FITC/7-AAD staining based flow cytometry (reference value: 98.8%); format: functional
PC-3 [15] = assay: Induction of apoptosis in human PC3 cells assessed as increase in caspase-3 protein expression after 48 hrs by Western blot method; format: functional, cell-based
PC-3 [16] = assay: Induction of apoptosis in human PC3 cells assessed as caspase 3A negative cells at 0.1 uM after 24 hrs by flow cytometry (reference value: 97.5%); format: functional
PC-3 [17] = assay: Induction of apoptosis in human PC3 cells assessed as necrotic cells at 10 uM after 24 hrs by Annexin-V FITC/7-AAD staining based flow cytometry (reference value: 0.02%); format: functional
PC-3 [18] = assay: Induction of apoptosis in human PC3 cells assessed as early apoptotic cells at 0.1 uM after 24 hrs by Annexin-V FITC/7-AAD staining based flow cytometry (reference value: 0.1%); format: functional
PC-3 [19] = assay: Induction of apoptosis in human PC3 cells assessed as late apoptotic cells at 0.1 uM after 24 hrs by Annexin-V FITC/7-AAD staining based flow cytometry (reference value: 0.31%); format: functional
PC-3 [20] = assay: Induction of apoptosis in human PC3 cells assessed as late apoptotic cells at 10 uM after 24 hrs by Annexin-V FITC/7-AAD staining based flow cytometry (reference value: 0.31%); format: functional
PC-3 [21] = assay: Induction of apoptosis in human PC3 cells assessed as downregulation of Bcl2 protein expression after 48 hrs by Western blot method; format: functional, cell-based
PC-3 [22] = assay: Induction of apoptosis in human PC3 cells assessed as caspase 3A positive cells at 0.1 uM after 24 hrs by flow cytometry (reference value: 2.45%); format: functional
PC-3 [23] = assay: Induction of apoptosis in human PC3 cells assessed as caspase 3A positive cells at 10 uM after 24 hrs by flow cytometry (reference value: 2.45%); format: functional

## C/C=C(/CO)[C@H]1C[C@@H]2c3[nH]c4ccccc4c3C[C@H]3N2C(=O)[C@@]13COC
PC-3 [1]
  Activity: Dose-dependent effect
PC-3 [2]
  Activity: 0.7%
PC-3 [3]
  Activity: 0.85%
PC-3 [4]
  Activity: 1.14%
PC-3 [5]
  pIC50: 6.13
PC-3 [6]
  Activity: 97.3%
MDA-MB-231
  pIC50: 5.74
K562
  pIC50: 5.91
PC-3 [7]
  Activity: 89.1%
PC-3 [8]
  Activity: 4.1%
PC-3 [9]
  Activity: 6.25%
PC-3 [10]
  Activity: Dose-dependent effect
PC-3 [11]
  Activity: 0.87%
A549
  pIC50: 5.49
PC-3 [12]
  Activity: 95.9%
PC-3 [13]
  Activity: 79.7%
PC-3 [14]
  Activity: 98.3%
PC-3 [15]
  Activity: Dose-dependent effect
PC-3 [16]
  Activity: 97.1%
PC-3 [17]
  Activity: 5.05%
PC-3 [18]
  Activity: 0.27%
PC-3 [19]
  Activity: 0.56%
PC-3 [20]
  Activity: 8.97%
PC-3 [21]
  Activity: Dose-dependent effect
PC-3 [22]
  Activity: 2.89%
PC-3 [23]
  Activity: 10.9%
